Assay results taken from PMC8125234, “Cardiolipin Stabilizes and Increases Catalytic Efficiency of Carnitine Palmitoyltransferase II and Its Variants S113L, P50H, and Y479F” (International Journal of Molecular Sciences, 2021).
Changes are numbered by the printed parent chain. Entries after “also recorded” stand apart in the source; their conditions may differ.

Legend:
CPT II variant P50H = molecular target: T1, CPT II variant P50H (Homo sapiens, UniProt P23786, P50H); experiment: Lipid binding assay (membrane lipid strips); details: 0.4 mg enzyme, 100 pmol lipid spots
T1 construct: made in house; host or cells: Escherichia coli BL21Gold DE
T1 sequence (P23786 26-658 P50H): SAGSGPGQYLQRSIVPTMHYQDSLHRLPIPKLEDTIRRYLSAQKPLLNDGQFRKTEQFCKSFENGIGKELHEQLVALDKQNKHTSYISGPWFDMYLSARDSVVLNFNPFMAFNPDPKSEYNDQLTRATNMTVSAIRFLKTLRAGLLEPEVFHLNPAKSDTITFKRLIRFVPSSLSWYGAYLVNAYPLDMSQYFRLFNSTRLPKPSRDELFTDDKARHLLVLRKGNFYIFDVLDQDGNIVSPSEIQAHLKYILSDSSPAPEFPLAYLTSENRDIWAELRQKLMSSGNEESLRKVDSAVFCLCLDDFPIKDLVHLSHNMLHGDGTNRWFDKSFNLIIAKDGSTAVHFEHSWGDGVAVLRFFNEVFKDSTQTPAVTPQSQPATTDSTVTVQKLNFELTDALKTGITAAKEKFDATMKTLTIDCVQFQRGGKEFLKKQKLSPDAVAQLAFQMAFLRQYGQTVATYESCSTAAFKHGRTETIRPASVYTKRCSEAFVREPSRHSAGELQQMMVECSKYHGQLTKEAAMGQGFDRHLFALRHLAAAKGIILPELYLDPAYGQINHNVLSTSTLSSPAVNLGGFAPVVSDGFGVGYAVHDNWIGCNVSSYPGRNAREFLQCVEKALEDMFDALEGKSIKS
Protocol: (§1) Direct interaction of CPT II WT and variants with phospholipids of the mitochondrial membrane was assessed using membrane lipid strips (Echelon Biosciences, Salt Lake City, Utah, USA). The membrane was spotted with 100 pmol of various cell membrane lipids. The assay was performed following manufacturer’s instructions with some modifications explained in the following. At first, the membrane was washed twice in phosphate buffered saline (PBS). After 1 h incubation with blocking solution (3% BSA fatty acid-free in PBS) at room temperature, the membrane was incubated with purified CPT II WT or variant (final amount 0.4 mg protein) for 2 h at 4 °C. After three washing steps, a-His-Probe (H3) mouse monoclonal antibody (Santa Cruz Biotech, Santa Cruz, CA, USA, 1:1000 dilution in PBS containing 3% BSA) was added to the membrane over night at 4 °C. The membrane was washed three times with PBS and incubated with mouse IgG horseradish peroxidase-linked whole antibody (from sheep, Amersham, Little Chalfont, Buckinghamshire, UK) for 1 h at 4 °C. The interaction was visualized by ECL Western blotting detection reagents (Amersham, Little Chalfont, Buckinghamshire, UK).

CPT II variant S113L [1] = molecular target: T2, CPT II variant S113L (Homo sapiens, UniProt P23786, S113L); experiment: Lipid binding assay (membrane lipid strips); details: 0.4 mg enzyme, 100 pmol lipid spots
T2 construct: made in house; host or cells: Escherichia coli BL21Gold DE
T2 sequence (P23786 26-658 S113L): T1 sequence (P23786 26-658 P50H) with H25P, S88L
Protocol: as §1

[2] = tested on: recombinant human CPT II WT; parameters: method as in PMID 13534673; details: cited from earlier work
CPT II variant S113L [3] = molecular target: T2, CPT II variant S113L; parameters: method as in PMID 13534673; details: cited from earlier work

- Signal for interaction on membrane lipid strips (CPT II variant P50H): lowest; also recorded: clearly proven
- Signal for interaction on membrane lipid strips (CPT II variant S113L [1]): clearly proven
Substance: Cardiolipin [CL]
- Effect of CL on enzyme activity [2]: activity-increasing effect
- Effect of CL on enzyme activity (CPT II variant S113L [3]): no benefit
